Assay [1] relates to Hep-2 cells. The assay can be described thus: MTT antiproliferative activity assay, Hep-2. It counts as cell-based. The settings on record: Homo sapiens, HEp-2; MTT, 48 h treatment, average of three replicates; read-out: IC50 Hep-2. The protocol:
Hep-2 (larynx carcinoma, ATCC: CCL-23), MCF-7 (breast epithelial adenocarcinoma, ATCC: HTB-22), and Vero (African green monkey kidney, ATCC: CCL-81) cell lines were kindly provided by Dr. Mona Hassuneh (Department of Biological Sciences, University of Jordan). Cells were grown in Minimum Essential Medium Eagle (Gibco, Paisley UK) supplemented with 10% heat inactivated fetal bovine serum (Gibco, Paisley UK), 29 μg/mL L-glutamine, and 40 μg/mL gentamicin. Cells were incubated in a humidified atmosphere of 5% CO2 at 37 °C.
The antiproliferative activity of Inula viscosa compounds was measured using the MTT (3-(4,5-dimethylthiazol-2-yl)-2,5-diphenyltetrazolium bromide) assay (Promega, Madison, WI, USA). The assay detects the reduction of MTT by mitochondrial dehydrogenase to blue formazan product, which reflects the normal function of mitochondria and cell viability. Exponentially growing cells were washed and seeded at 17,000 cells/well for Hep-2 cell line and 11,000 cells/ well for MCF-7 cell line (in 200 μL of growth medium) in 96 well microplates (Nunc, Roskilde, Denmark). After 24 h incubation, a partial monolayer was formed then the media was removed and 200 μL of the medium containing the compound (initially dissolved in DMSO) were added and re-incubated for 48 h. Then 100 μL of the medium were aspirated and 15 μL of the MTT solution were added to the remaining medium (100 μL) in each well. After 4 h contact with the MTT solution, blue crystals were formed. One hundred μL of the stop solution were added and incubated further for 1 h.
Reduced MTT was assayed at 550 nm using a microplate reader (Biotek, Winooski, VT, USA). Control groups received the same amount of DMSO (0.1%).Untreated cells were used as a negative control while, cells treated with vincristine sulfate were used as a positive control. Eight concentrations (150, 100, 50, 20, 10, 5, 2, and 1 μg/mL) were prepared from each compound and tested against the three cell lines. IC50 values were calculated as the concentrations that show 50% inhibition of proliferation on any tested cell line. Stock solutions of the compounds were dissolved in (DMSO) then diluted with the medium and sterilized using 0.2 μm membrane filters. The toxicity of DMSO was determined and the final dilution of compounds used for treating the cells contained not more than 0.1% (non toxic concentration) DMSO. IC50 values were reported as the average of three replicates. The antiproliferative effect of the tested compounds was determined by comparing the optical density of the treated cells against the optical density of the control (cells treated with media containing 0.1% DMSO).

Assay [2] relates to Bacillus cereus. As to the kind of experiment: Microtiter plate dilution MIC, B. cereus. Type of assay: cell-based. The settings on record: Bacillus cereus; Toxigenic strain TS, 24 h, 100% inhibition; read-out: Minimum inhibitory concentration (MIC) B.c. The protocol:
The microbial strains used in this study were Escherichia coli (ATCC 10798), Salmonella typhimurium (ATCC14028), Methicillin resistant Staphylococcus aureus (MRSA, Clinical isolate), Bacillus cereus (Toxigenic strain TS), and Candida albicans (ATCC 90028). Bacterial strains were stocked onto nutrient agar slant at 4 °C, and Candida albicans was stocked onto malt agar slant at 4 °C.
The microtiter plate dilution method was used to determine the MIC (minimum inhibitory concentration) of compounds under study. Sterile 96-well microplates (Nunc) were used for the assay. Stock compounds were dissolved in DMSO so that the final concentrations in micro wells were less than 1% DMSO and solvent controls were run at these concentrations. Positive controls of penicillin G and tetracycline (Oxoid, Hampshire, UK) were prepared at the following concentrations 2, 4, 8, 16, 31, 62.5, 125, and 250 μg/mL. 1% DMSO was used as a solvent control. Compounds were diluted to twice the desired initial test concentration (250 µg/mL) with Muller Hinton broth (MHB) (Oxoid). All wells, except the first were filled with MHB (50 μL). Compounds (100 μL) were added to the first well and serial two-fold dilutions were made down to the desired minimum concentration (2 μg/mL). An over-night culture of bacteria suspended in MHB was adjusted to turbidity equal to 0.5 McFarland standard. The plates were inoculated with bacterial suspension (50 μL/well) and incubated at 37 °C for 24 h. Then the turbidity was measured using micro-plate reader (Biotek) at 620 nm wavelength. The same procedure was used to determine the antifungal activity of compounds against Candida albicans. The medium used was malt extract broth. The yeast cells were suspended in 0.85% saline, with an optical density equivalent to 0.5 McFarland standard, and diluted 1:100 in malt extract broth to obtain the working concentration. After 24 h incubation with each compound, the turbidity was measured at 530 nm wavelength using a spectrophotometer (Biotek). Percentage inhibition for tested microorganisms was calculated using the following formula:
MIC was determined as the lowest concentration of the compound that causes complete inhibition (100%) of each microorganism.

The test system of assay [3] is MCF-7 cells. The assay can be described thus: TUNEL colorimetric apoptosis assay. Type of assay: cell-based, human. The note with it: 15 µg/mL, 28 h, compared with untreated cells. The protocol:
Apoptosis was detected using terminal deoxynucleotidyl transferase (TdT) mediated-16-deoxyuridine triphosphate (dUTP) Nick-End Labelling (TUNEL) system (Promega, Madison, WI, USA). MCF-7 cells cultured in 24 well plates were treated with 15 µg/mL of either 3-O-methylquercetin or 3,3′-di-O-methylquercetin for 28 h. The assay was conducted according to the manufacturer's instructions. Briefly, treated cells were fixed using 10% formalin followed by washing with phosphate buffer saline (PBS). Cells were then permeabilized using 0.2% triton X-100. Biotinylated dUTP in rTdT reaction mixture was added to label the fragmented DNA at 37 °C for one hour, followed by blocking endogenous peroxidases using 0.3% hydrogen peroxide. Streptavidin HRP (1:500 in PBS) was added and incubated at room temperature for 30 min. Finally, hydrogen peroxide and chromagen diaminobenzidine were used to visualize nuclei with fragmented DNAs under the light microscope (Novex, Arnhem, Holland). Cells treated with 40 nM vincristine sulfate were used as a positive control while untreated cells were used as a negative control.

As usually defined, the IC50 is the point on the concentration scale where inhibition reaches its midpoint.

SMILES strings stand for the structures. Converted amounts (≈) assume the structure as drawn.

For `COc1cc(-c2oc3cc(O)cc(O)c3c(=O)c2OC)ccc1O` [3,3′-di-O-Methylquercetin], in assay [1], the IC50 came out at 28 ± 1.13 µg/mL (≈ 84.8 µM). Moreover, the MIC in assay [2] was determined as 62.5 µg/mL (≈ 189 µM). For the same compound, in assay [3], the “Apoptosis induction (DNA fragmentation, TUNEL)” value was “increase in the number of apoptotic cells with fragmented DNA”.

For the origin of these results see paper PMC6268972, “Antiproliferative, Antimicrobial and Apoptosis Inducing Effects of Compounds Isolated from Inula viscosa” (Molecules, 2012).
